Holding throughout (experiment): Ras-Raf disruption / FRET / MOA assay (BRAF RBD)
What all share (format): biochemical

The target of one assay is KRAS G12D (Homo sapiens, UniProt P01116+P62937, G12D). Particulars: Ras-Raf disruption, with Cyclophilin A; read-out: KRAS G12D FRET data IC50. The method in brief:
(§1)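 Compound-induced Ras–Cyclophilin A ternary complex disrupting BRAF RBD binding, read as IC50 from reduced TR-FRET ratio relative to DMSO. Final: Ras-GMPPNP 12.5 nM, BRAF RBD 50 nM, Cyclophilin A 25 μM, top compound 30 μM (3-fold, 10 points); 3 h at 25 °C, then 1.5 h with detection antibodies.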

The target in a further assay is KRAS G12S (Homo sapiens, UniProt P01116+P62937, G12S). Particulars: Ras-Raf disruption, with Cyclophilin A; read-out: KRAS G12S FRET data IC50. In short, it runs like this:
as §1

The target in the next assay is KRAS G12V (Homo sapiens, UniProt P01116+P62937, G12V). As to conditions: Ras-Raf disruption, with Cyclophilin A; read-out: KRAS G12V FRET data IC50. The method in brief: as §1
A further assay deals with KRAS G13C (Homo sapiens, UniProt P01116+P62937, G13C). Particulars: Ras-Raf disruption, with Cyclophilin A; read-out: KRAS G13C FRET data IC50. In short, it runs like this: as §1
The target in a further assay is KRAS G13D (Homo sapiens, UniProt P01116+P62937, G13D). Particulars: Ras-Raf disruption, with Cyclophilin A; read-out: KRAS G13D FRET data IC50. The method in brief:
as §1

In the next assay the target is KRAS WT (Homo sapiens, UniProt P01116+P62937). As to conditions: Ras-Raf disruption, with Cyclophilin A; read-out: KRAS WT FRET data IC50. In short, it runs like this:
as §1

In the next assay the target is NRAS G12C (Homo sapiens, UniProt P01111+P62937, G12C). Particulars: NRAS G12C; read-out: NRAS G12C FRET data IC50. In short, it runs like this: as §1
A further assay addresses KRAS G12C (Homo sapiens, UniProt P01116+P62937, G12C). Particulars: Ras-Raf disruption, with Cyclophilin A; read-out: KRAS G12C FRET data IC50. In short, it runs like this:
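TR-FRET read-out after 1.5 h with anti-His Eu-W1024 (10 nM) and anti-GST APC (50 nM), following 3 h at 25 °C of compound (top 30 μM, 3-fold, 10 points) with 25 μM Cyclophilin A, 12.5 nM GMPPNP-loaded K-Ras G12C and 50 nM BRAF RBD; IC50 reported.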

The record followed here is patent US20230233569A1 (Revolution Medicines, Inc., priority 2020, published 2023).

Chain of NRAS G12C (P01111 whole entry G12C): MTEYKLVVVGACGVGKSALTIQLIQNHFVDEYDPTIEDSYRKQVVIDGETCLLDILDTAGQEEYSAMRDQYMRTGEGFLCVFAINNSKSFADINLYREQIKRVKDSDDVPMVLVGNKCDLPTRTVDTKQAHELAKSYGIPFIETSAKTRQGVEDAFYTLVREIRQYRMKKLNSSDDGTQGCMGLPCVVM
Chain of NRAS G12C (P62937 whole entry): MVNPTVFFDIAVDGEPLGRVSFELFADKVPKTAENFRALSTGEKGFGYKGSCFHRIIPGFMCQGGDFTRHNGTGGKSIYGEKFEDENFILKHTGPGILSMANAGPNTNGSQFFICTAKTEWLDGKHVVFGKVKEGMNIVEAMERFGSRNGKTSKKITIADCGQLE
Chain of KRAS G12D (P01116 1-169 isoform P01116-2 G12D limits assumed): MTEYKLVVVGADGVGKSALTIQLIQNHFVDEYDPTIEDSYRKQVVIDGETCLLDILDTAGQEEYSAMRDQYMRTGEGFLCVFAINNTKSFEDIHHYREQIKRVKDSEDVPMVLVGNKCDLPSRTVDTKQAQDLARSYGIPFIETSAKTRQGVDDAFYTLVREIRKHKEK
Chain of KRAS G12D (P62937 whole entry): as the sequence (P62937 whole entry) above
Chain of KRAS G13C (P01116 1-169 isoform P01116-2 G13C limits assumed): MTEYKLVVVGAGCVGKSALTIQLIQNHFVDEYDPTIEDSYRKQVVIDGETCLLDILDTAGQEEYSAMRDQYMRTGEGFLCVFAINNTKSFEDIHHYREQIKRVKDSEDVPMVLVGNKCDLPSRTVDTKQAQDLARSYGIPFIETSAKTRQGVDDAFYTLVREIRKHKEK
Chain of KRAS G13C (P62937 whole entry): as the sequence (P62937 whole entry) above
Chain of KRAS G13D (P01116 1-169 isoform P01116-2 G13D limits assumed): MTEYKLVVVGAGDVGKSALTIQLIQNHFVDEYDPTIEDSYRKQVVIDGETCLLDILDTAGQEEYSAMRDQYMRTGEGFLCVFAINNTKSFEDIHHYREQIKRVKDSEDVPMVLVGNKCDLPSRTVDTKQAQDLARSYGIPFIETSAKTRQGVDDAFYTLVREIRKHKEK
Chain of KRAS G13D (P62937 whole entry): as the sequence (P62937 whole entry) above
Chain of KRAS G12S (P01116 1-169 isoform P01116-2 G12S limits assumed): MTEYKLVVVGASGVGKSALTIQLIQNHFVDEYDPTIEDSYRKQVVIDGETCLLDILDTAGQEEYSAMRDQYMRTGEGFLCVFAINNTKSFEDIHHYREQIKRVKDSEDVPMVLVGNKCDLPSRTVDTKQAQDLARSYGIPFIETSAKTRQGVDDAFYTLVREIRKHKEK
Chain of KRAS G12S (P62937 whole entry): as the sequence (P62937 whole entry) above
Chain of KRAS WT (P01116 1-169 isoform P01116-2 limits assumed): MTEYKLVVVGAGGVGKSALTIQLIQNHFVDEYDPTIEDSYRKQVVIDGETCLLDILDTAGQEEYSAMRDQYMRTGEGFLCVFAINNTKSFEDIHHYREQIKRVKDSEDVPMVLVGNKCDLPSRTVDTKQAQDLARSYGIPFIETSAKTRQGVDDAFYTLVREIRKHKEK
Chain of KRAS WT (P62937 whole entry): as the sequence (P62937 whole entry) above
Chain of KRAS G12C (P01116 1-169 isoform P01116-2 G12C limits assumed): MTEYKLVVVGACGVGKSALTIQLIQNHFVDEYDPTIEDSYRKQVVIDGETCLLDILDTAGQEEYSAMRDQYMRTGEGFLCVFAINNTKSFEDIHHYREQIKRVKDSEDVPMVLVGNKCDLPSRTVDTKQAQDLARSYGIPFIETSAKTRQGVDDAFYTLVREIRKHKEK
Chain of KRAS G12C (P62937 whole entry): as the sequence (P62937 whole entry) above
Chain of KRAS G12V (P01116 1-169 isoform P01116-2 G12V limits assumed): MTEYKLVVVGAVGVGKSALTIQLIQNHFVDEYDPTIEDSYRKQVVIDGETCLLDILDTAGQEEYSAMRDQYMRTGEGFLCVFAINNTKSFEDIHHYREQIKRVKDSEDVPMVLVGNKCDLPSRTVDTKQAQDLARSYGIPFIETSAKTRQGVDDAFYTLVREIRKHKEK
Chain of KRAS G12V (P62937 whole entry): as the sequence (P62937 whole entry) above

With `CCn1c(-c2cccnc2[C@H](C)OC)c2c3cc(ccc31)-c1csc(n1)C[C@H](NC(=O)[C@H](C(C)C)N(C)C(=O)N1CCN(C(=O)[C@@H]3CN3)CC1)C(=O)N1CCC[C@H](N1)C(=O)OCC(C)(C)C2` [Example 168], the IC50 lay in the range of 100 to 1000 nM at KRAS G12D; 10 to 100 nM on KRAS G12S; 100 to 1000 nM at KRAS G12V; 100 to 1000 nM at KRAS G13C; 100 to 1000 nM on KRAS G13D; 10 to 100 nM on KRAS WT. For the same compound, the IC50 at NRAS G12C and on KRAS G12C was 10 to 100 nM throughout.

`CCn1c(-c2cccnc2[C@H](C)OC)c2c3cc(ccc31)-c1cc(O)cc(c1)C[C@H](NC(=O)[C@H](C(C)C)N(C)C(=O)CC1CN(C(=O)[C@H]3CN3)C1)C(=O)N1CCC[C@H](N1)C(=O)OCC(C)(C)C2` [Example 179]: the concentration for half-maximal inhibition (IC50) on KRAS G12D lay within 100 to 1000 nM; on KRAS G12S, 100 to 1000 nM; on KRAS G12V, 100 to 1000 nM; on KRAS G13C, 10 to 100 nM; on KRAS G13D, 100 to 1000 nM; on KRAS WT, 100 to 1000 nM. The IC50 at NRAS G12C and at KRAS G12C was 10 to 100 nM throughout.

For the compound `CCn1c(-c2cccnc2[C@H](C)OC)c2c3cc(ccc31)-c1cc(O)cc(c1)C[C@H](NC(=O)[C@H](C(C)C)N(C)C(=O)N1CC(NC(=O)[C@@H]3CN3)C1)C(=O)N1CCC[C@H](N1)C(=O)OCC(C)(C)C2` (atropisomer, axis not shown) [Example 188], the concentration for half-maximal inhibition (IC50) at KRAS G12D was 100 to 1000 nM; on KRAS G12S it was 100 to 1000 nM; at KRAS G12V it was 100 to 1000 nM; on KRAS G13C, 10 to 100 nM; on KRAS G13D it was 100 to 1000 nM; on KRAS WT it was 100 to 1000 nM. The IC50 on NRAS G12C and at KRAS G12C was 10 to 100 nM in each case.

`CCn1c(-c2cccnc2[C@H](C)OC)c2c3cc(ccc31)-c1cc(O)cc(c1)C[C@H](NC(=O)[C@H](C(C)C)N(C)C(=O)N1CCN(C(=O)[C@H]3CN3)CC1=O)C(=O)N1CCC[C@H](N1)C(=O)OCC(C)(C)C2` (atropisomer, axis not shown) [Example 183]: the IC50 at KRAS G12D was 1000 to 10000 nM; at KRAS G12S it was 100 to 1000 nM; on KRAS G12V, 100 to 1000 nM; at KRAS G13C, 10 to 100 nM; at KRAS G13D, 100 to 1000 nM; at KRAS WT it was 10 to 100 nM. The values for the 50% inhibitory concentration (IC50) at NRAS G12C and on KRAS G12C were 10 to 100 nM and below 10 nM, respectively.

As to `CCn1c(-c2cccnc2[C@H](C)OC)c2c3cc(ccc31)-c1cc(O)cc(c1)C[C@H](NC(=O)[C@H](C(C)C)N(C)C(=O)[C@H]1CN1)C(=O)N1CCC[C@H](N1)C(=O)OCC(C)(C)C2` [Example 112], the half-maximal inhibitory concentration (IC50) fell in the range of 100 to 1000 nM at KRAS G12D; 100 to 1000 nM on KRAS G12S; 100 to 1000 nM on KRAS G12V; 10 to 100 nM at KRAS G13C; 100 to 1000 nM on KRAS G13D; 10 to 100 nM at KRAS WT. The IC50 on NRAS G12C and on KRAS G12C was 100 to 1000 nM each time.

For the compound `CCn1c(-c2cccnc2[C@H](C)OC)c2c3cc(ccc31)-c1cc(O)cc(c1)C[C@H](NC(=O)[C@H](C(C)C)N1CCC3(CCN(C(=O)[C@H]4CN4)C3)C1=O)C(=O)N1CCC[C@H](N1)C(=O)OCC(C)(C)C2` (some centres unmarked) [Example 59], the 50% inhibitory concentration (IC50) at KRAS G12D fell in the range of 10 to 100 nM; at KRAS G12S it was 10 to 100 nM; on KRAS G12V, 10 to 100 nM; at KRAS G13C, 10 to 100 nM; on KRAS G13D, 100 to 1000 nM; at KRAS WT, 10 to 100 nM. Further, the figures for the IC50 on NRAS G12C and on KRAS G12C were below 10 nM and 10 to 100 nM, respectively.

With `CCn1c(-c2cccnc2[C@H](C)OC)c2c3cc(ccc31)-c1cc(O)cc(c1)C[C@H](NC(=O)[C@H](C(C)C)N(C)C(=O)c1ccc([C@@H]3CN3)cc1)C(=O)N1CCC[C@H](N1)C(=O)OCC(C)(C)C2` [Example 131], the IC50 was in the range of 100 to 1000 nM on KRAS G12D; 100 to 1000 nM at KRAS G12S; 100 to 1000 nM at KRAS G12V; 10 to 100 nM at KRAS G13C; 100 to 1000 nM at KRAS G13D; 100 to 1000 nM at KRAS WT. Also, the IC50 at NRAS G12C and on KRAS G12C was 10 to 100 nM each time.

Take `CCn1c(-c2cccnc2[C@H](C)OC)c2c3cc(ccc31)-c1cc(O)cc(c1)C[C@H](NC(=O)[C@H](C(C)C)N1CC[C@]3(CCN(C(=O)[C@H]4CN4)C3)C1=O)C(=O)N1CCC[C@H](N1)C(=O)OCC(C)(C)C2` [Example 146]: the IC50 at KRAS G12D was in the range of 10 to 100 nM; at KRAS G12S it was 10 to 100 nM; on KRAS G12V, 10 to 100 nM; on KRAS G13C it was 10 to 100 nM; on KRAS G13D it was 100 to 1000 nM; on KRAS WT, 10 to 100 nM. Moreover, the IC50 on NRAS G12C and at KRAS G12C was below 10 nM throughout.

For `CCn1c(-c2cccnc2[C@H](C)OC)c2c3cc(ccc31)-c1cc(O)cc(c1)C[C@H](NC(=O)[C@H](C(C)C)N(C)C(=O)N1CC(NC(=O)[C@H]3CN3)C1)C(=O)N1CCC[C@H](N1)C(=O)OCC(C)(C)C2` (atropisomer, axis not shown) [Example 189], the IC50 fell in the range of 100 to 1000 nM on KRAS G12D; 100 to 1000 nM on KRAS G12S; 10 to 100 nM at KRAS G12V; 10 to 100 nM on KRAS G13C; 100 to 1000 nM at KRAS G13D; 10 to 100 nM on KRAS WT. Further, the IC50 at NRAS G12C and at KRAS G12C was 10 to 100 nM throughout.

Take `CCn1c(-c2cccnc2[C@H](C)OC)c2c3cc(ccc31)-c1cc(O)cc(c1)C[C@H](NC(=O)[C@H](C1CCCC1)N1CC[C@]3(CCN(C(=O)[C@H]4CN4)C3)C1=O)C(=O)N1CCC[C@H](N1)C(=O)OCC(C)(C)C2` [Example 175, (2S)-2-((S)-7-((R)-aziridine-2-carbonyl)-1-oxo-2,7-diazaspiro[4.4]nonan-2-yl)-2-cyclopentyl-N-((6^3S,4S)-1^1-ethyl-2^5-hydroxy-1^2-(2-((S)-1-methoxyethyl)pyridin-3-yl)-10,10-dimethyl-5,7-dioxo-6^1,6^2,6^3,6^4,6^5,6^6-hexahydro-1^1H-8-oxa-1(5,3)-indola-6(1,3)-pyridazina-2(1,3)-benzenacycloundecaphane-4-yl)acetamide]: the half-inhibitory concentration (IC50) at KRAS G12D, on KRAS G12S, at KRAS G12V, on KRAS G13C, at KRAS G13D and on KRAS WT was 10 to 100 nM in each case. The IC50 on NRAS G12C and on KRAS G12C was below 10 nM in each case.

With `CCn1c(-c2cnccc2COC)c2c3cc(ccc31)-c1cc(O)cc(c1)C[C@H](NC(=O)[C@H](C(C)C)N(C)C(=O)CN(C)C(=O)[C@H]1[C@@H](C(=O)OC)N1[S@+]([O-])C(C)(C)C)C(=O)N1CCC[C@H](N1)C(=O)OCC(C)(C)C2` (some centres unmarked) [Example 48], the 50% inhibitory concentration (IC50) was in the range of 100 to 1000 nM on KRAS G12D; 10 to 100 nM at KRAS G12S; 10 to 100 nM at KRAS G12V; 10 to 100 nM at KRAS G13C; 100 to 1000 nM at KRAS G13D; 100 to 1000 nM at KRAS WT. Moreover, the IC50 at NRAS G12C and on KRAS G12C was 10 to 100 nM throughout.

Turning to `CCn1c(-c2cccnc2[C@H](C)OC)c2c3cc(ccc31)-c1cc(O)cc(c1)C[C@H](NC(=O)[C@H](C(C)C)N(C)C(=O)N1CCN(C(=O)[C@@H]3CN3)C(=O)C1)C(=O)N1CCC[C@H](N1)C(=O)OCC(C)(C)C2` [Example 194], the IC50 at KRAS G12D is 100 to 1000 nM; at KRAS G12S, 100 to 1000 nM; at KRAS G12V, 100 to 1000 nM; on KRAS G13C, 10 to 100 nM; at KRAS G13D it was 10 to 100 nM; on KRAS WT, 100 to 1000 nM. The concentration for half-maximal inhibition (IC50) on NRAS G12C and at KRAS G12C was 100 to 1000 nM throughout.

Turning to `CCn1c(-c2cccnc2[C@H](C)OC)c2c3cc(ccc31)-c1cc(O)cc(c1)C[C@H](NC(=O)[C@H](C(C)C)N(C)C(=O)N1CCCN(C(=O)[C@H]3CN3)CC1)C(=O)N1CCC[C@H](N1)C(=O)OCC(C)(C)C2` (atropisomer, axis not shown) [Example 190], the IC50 on KRAS G12D is 100 to 1000 nM; on KRAS G12S it was 10 to 100 nM; on KRAS G12V it was 10 to 100 nM; on KRAS G13C it was 10 to 100 nM; at KRAS G13D, 100 to 1000 nM; at KRAS WT, 10 to 100 nM. Further, the 50% inhibitory concentration (IC50) on NRAS G12C was 10 to 100 nM; at KRAS G12C it was below 10 nM.
